Literature values as cited in patent US20260325482A1, “TASIMELTEON FOR USE IN THE TREATMENT OF DELAYED SLEEP-WAKE PHASE DISORDER” (VANDA PHARMACEUTICALS INC., priority 2023, published 2026).

How the values were obtained:
[1] = system: MT2 receptor; conditions: MT2 receptor vs MT1 receptor
[2] = system: Non-24; conditions: daily dose of 20 mg administered once, before bedtime
[3] = healthy volunteers, participants with primary insomnia, Non-24, and pediatric participants with SMS
[4] = high-calorie/high-fat meals
[5] = system: SMS; conditions: daily dose of 0.7 mg/kg once daily; patients having a body mass of 28 kg or less

CCC(=O)NC[C@@H]1C[C@H]1c1cccc2c1CCO2 [tasimelteon]
affinity for the MT2 receptor compared with the MT1 receptor [1]: greater affinity for the MT2 receptor than the MT1 receptor
effectiveness in treating Non-24 [2]: effective
safety and tolerability [3]: safe and well-tolerated
Cmax with food [4]: significantly lower
Tmax with food [4]: delay
extent of absorption with food [4]: not significantly affected
linearity of pharmacokinetics (doses ranging from 3 mg to 300 mg): linear
absolute bioavailability (oral): 38%
effectiveness in treating SMS [5]: effective
